Reference: patent US8188135B2, “Compounds as cannabinoid receptor ligands” (priority 2008, dated 2012)
pKi: −log10 of the molar value. Like-named read-outs stand apart in the source and are kept apart here.

What was measured:
human CB2 receptors = biological target: T1, human CB2 receptors (Homo sapiens, UniProt P34972); experiment: human CB2 radioligand binding assay ([3H]CP 55,940 competition); details: HEK293 membranes, 0.5 nM [3H]CP 55,940; for Ki: human CB2 (Ki, nM); for pKi: read-out: human CB2 (Ki)
T1 construct: expressed in transfected cells; host or cells: HEK293
Protocol: (§1) The CB1 and CB2 radioligand binding assays described herein are utilized to ascertain the affinity of compounds of the present application for binding to CB2 relative to CB1 receptors.
HEK293 cells stably expressing human CB2 receptors were grown until a confluent monolayer was formed. Briefly, the cells were harvested and homogenized in TE buffer (50 mM Tris-HCl, 1 mM MgCl2, and 1 mM EDTA) using a polytron for 2×10 second bursts in the presence of protease inhibitors, followed by centrifugation at 45,000×g for 20 minutes. The final membrane pellet was re-homogenized in storage buffer (50 mM Tris-HCl, 1 mM MgCl2, and 1 mM EDTA and 10% sucrose) and frozen at −78° C. until used. Saturation binding reactions were initiated by the addition of membrane preparation (protein concentration of 5 μg/well for human CB2) into wells of a deep well plate containing [^3H]CP 55,940 (120 Ci/mmol, a nonselective CB agonist commercially available from Tocris) in assay buffer (50 mM Tris, 2.5 mM EDTA, 5 mM MgCl2, and 0.5 mg/mL fatty acid free BSA, pH 7.4). After 90 min incubation at 30° C., binding reaction was terminated by the addition of 300 μL/well of cold assay buffer followed by rapid vacuum filtration through a UniFilter-96 GF/C filter plates (pre-soaked in 1 mg/mL BSA for 2 hours). The bound activity was counted in a TopCount using Microscint-20. Saturation experiments were conducted with twelve concentrations of [^3H]CP 55,940 ranging from 0.01 to 8 nM. Competition experiments were conducted with 0.5 nM [^3H]CP 55,940 and five concentrations (0.01 nM to 10 μM) of displacing ligands. The addition of 10 μM unlabeled CP 55,940 (Tocris, Ellisville, Mo.) was used to assess nonspecific binding.

rat CB2 = biological target: T2, rat CB2 (Rattus norvegicus, UniProt Q9QZN9); experiment: rat CB2 radioligand binding assay ([3H]CP 55,940 competition); design: expressed in transfected cells; host or cells: HEK293; details: HEK293 membranes, 0.5 nM [3H]CP 55,940; for Ki: rat CB2 (Ki, nM); for pKi: read-out: rat CB2 (Ki)
T2 sequence (Q9QZN9 1-360): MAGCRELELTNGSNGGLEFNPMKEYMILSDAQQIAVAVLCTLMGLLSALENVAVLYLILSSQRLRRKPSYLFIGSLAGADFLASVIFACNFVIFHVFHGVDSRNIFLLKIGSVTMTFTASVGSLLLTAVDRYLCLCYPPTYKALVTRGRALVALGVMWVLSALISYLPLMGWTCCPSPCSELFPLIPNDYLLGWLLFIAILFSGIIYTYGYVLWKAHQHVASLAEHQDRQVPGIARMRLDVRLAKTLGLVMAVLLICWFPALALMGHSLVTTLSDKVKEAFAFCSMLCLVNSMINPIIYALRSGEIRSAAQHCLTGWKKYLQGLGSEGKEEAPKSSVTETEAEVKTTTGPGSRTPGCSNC
Protocol: as §1
HEK293 cells stably expressing rat CB2 receptors were grown until a confluent monolayer was formed. Briefly, the cells were harvested and homogenized in TE buffer (50 mM Tris-HCl, 1 mM MgCl2, and 1 mM EDTA) using a polytron for 2×10 second bursts in the presence of protease inhibitors, followed by centrifugation at 45,000×g for 20 minutes. The final membrane pellet was re-homogenized in storage buffer (50 mM Tris-HCl, 1 mM MgCl2, and 1 mM EDTA and 10% sucrose) and frozen at −78° C. until used. Saturation binding reactions were initiated by the addition of membrane preparation (protein concentration of 20 μg/well for rat CB2) into wells of a deep well plate containing [^3H]CP 55,940 (120 Ci/mmol, a nonselective CB agonist commercially available from Tocris) in assay buffer (50 mM Tris, 2.5 mM EDTA, 5 mM MgCl2, and 0.5 mg/mL fatty acid free BSA, pH 7.4). After 45 min incubation at 30° C., binding reaction was terminated by the addition of […] of cold assay buffer followed by rapid vacuum filtration through a UniFilter-96 GF/C filter plates (pre-soaked in 1 mg/mL BSA for 2 hours). The bound activity was counted in a TopCount using Microscint-20. Saturation experiments were conducted with twelve concentrations of [^3H]CP 55,940 ranging from 0.01 to 8 nM. Competition experiments were conducted with 0.5 nM [^3H]CP 55,940 and five concentrations of displacing ligands selected from the range of 0.01 nM to 10 μM. The addition of 10 μM unlabeled CP 55,940 (Tocris, Ellisville, Mo.) was used to assess nonspecific binding.

T1 sequence (P34972 whole entry): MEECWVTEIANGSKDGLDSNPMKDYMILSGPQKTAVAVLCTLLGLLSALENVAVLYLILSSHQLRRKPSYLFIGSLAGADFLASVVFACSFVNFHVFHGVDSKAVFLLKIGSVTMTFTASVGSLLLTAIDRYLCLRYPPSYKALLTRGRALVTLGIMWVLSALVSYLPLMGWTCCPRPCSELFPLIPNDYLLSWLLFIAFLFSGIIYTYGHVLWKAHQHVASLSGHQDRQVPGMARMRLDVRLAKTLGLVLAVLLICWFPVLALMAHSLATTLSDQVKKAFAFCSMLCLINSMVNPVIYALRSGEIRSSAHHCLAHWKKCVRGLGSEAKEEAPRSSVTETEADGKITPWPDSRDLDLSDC

SMILES	Ki (human CB2 receptors)	Ki (rat CB2)	pKi (human CB2 receptors)	pKi (rat CB2)
CSCCCCOc1ccc(C(F)(F)F)cc1C(=O)/N=c1\cc(C(C)(C)C)n(C)n1C[C@H]1CCCO1 [Example 82, N-{(3E)-5-tert-butyl-1-methyl-2-[(2R)-tetrahydrofuran-2-ylmethyl]-1,2-dihydro-3 H-pyrazol-3-ylidene}-2-[4-(methylthio)butoxy]-5-(trifluoromethyl)benzamide]	5.4 nM	2.6 nM		
Cn1c(C(C)(C)C)c/c(=N\C(=O)c2cc(C(F)(F)F)ccc2OCCCCS(C)(=O)=O)n1C[C@H]1CCCO1 [Example 83, N-{(3E)-5-tert-butyl-1-methyl-2-[(2R)-tetrahydrofuran-2-ylmethyl]-1,2-dihydro-3 H-pyrazol-3-ylidene}-2-[4-(methylsulfonyl)butoxy]-5-(trifluoromethyl)benzamide]	> 1000 nM	305 nM		
CCCCn1nc(C(C)(C)C)s/c1=N\C(=O)c1cc(C(F)(F)F)ccc1OCC(C)(C)O [Example 84, N-[(2Z)-3-butyl-5-tert-butyl-1,3,4-thiadiazol-2(3H)-ylidene]-2-(2-hydroxy-2-methylpropoxy)-5-(trifluoromethyl)benzamide]	1.8 nM	1.5 nM		
CC(C)(C)c1nn(CCCC#N)/c(=N/C(=O)c2cc(C(F)(F)F)ccc2OCCCC#N)s1 [Example 85, N-[(2Z)-5-tert-butyl-3-(3-cyanopropyl)-1,3,4-thiadiazol-2(3H)-ylidene]-2-(3-cyanopropoxy)-5-(trifluoromethyl)benzamide]	20 nM	2.5 nM		
CCCCn1ccc(C(C)(C)C)c/c1=N\C(=O)c1cc(C(F)(F)F)ccc1OCC(C)(C)O [Example 92, N-[(2E)-1-butyl-4-tert-butylpyridin-2(1H)-ylidene]-2-(2-hydroxy-2-methylpropoxy)-5-(trifluoromethyl)benzamide]	73 nM	47 nM		
CCCCn1cc(C(C)(C)C)o/c1=N\C(=O)c1cc(C(F)(F)F)ccc1OCC(C)(C)O [Example 93, N-[(2Z)-3-butyl-5-tert-butyl-1,3-oxazol-2(3H)-ylidene]-2-(2-hydroxy-2-methylpropoxy)-5-(trifluoromethyl)benzamide]	3.6 nM	3.9 nM		
CCCCN1CC(C)(C)S/C1=N\C(=O)c1cc(C(F)(F)F)ccc1OCC(C)(C)O [Example 94, N-[(2Z)-3-butyl-5,5-dimethyl-1,3-thiazolidin-2-ylidene]-2-(2-hydroxy-2-methylpropoxy)-5-(trifluoromethyl)benzamide]	3.9 nM	5 nM		
Cn1c(C(C)(C)C)c/c(=N\C(=O)c2cc(C(F)(F)F)ccc2OCC(C)(C)O)n1CC1CCOCC1 [Example 95, N-[(3E)-5-tert-butyl-1-methyl-2-(tetrahydro-2H-pyran-4-ylmethyl)-1,2-dihydro-3 H-pyrazol-3-ylidene]-2-(2-hydroxy-2-methylpropoxy)-5-(trifluoromethyl)benzamide]			< 6.00	6.48
CC(C)(O)COc1ccc(C(F)(F)F)cc1C(=O)/N=c1\sc(C(C)(C)C)nn1CC1CCO1 (stereo not drawn) [Example 96, N-[(2Z)-5-tert-butyl-3-(oxetan-2-ylmethyl)-1,3,4-thiadiazol-2(3H)-ylidene]-2-(2-hydroxy-2-methylpropoxy)-5-(trifluoromethyl)benzamide]	9.4 nM	6.1 nM		
CC(C)(O)COc1ccc(C(F)(F)F)cc1C(=O)/N=c1\sc(C(C)(C)C)nn1CC1(C)COC1 [Example 97, N-[(2Z)-5-tert-butyl-3-[(3-methyloxetan-3-yl)methyl]-1,3,4-thiadiazol-2(3 H)-ylidene]-2-(2-hydroxy-2-methylpropoxy)-5-(trifluoromethyl)benzamide]	31.6 nM	13 nM		
C[C@H](O)COc1ccc(C(F)(F)F)cc1C(=O)/N=c1\cc(C(C)(C)C)n(C)n1C[C@H]1CCCO1 [Example 98, N-{(3E)-5-tert-butyl-1-methyl-2-[(2R)-tetrahydrofuran-2-ylmethyl]-1,2-dihydro-3 H-pyrazol-3-ylidene}-2-{[(2S)-2-hydroxypropyl]oxy}-5-(trifluoromethyl)benzamide]	4.6 nM	6.6 nM		
CCCCn1oc(C(C)(C)C)c/c1=N\C(=O)c1cc(C(F)(F)F)ccc1OCC(C)(C)O [Example 100, N-[(3E)-2-butyl-5-tert-butylisoxazol-3(2H)-ylidene]-2-(2-hydroxy-2-methylpropoxy)-5-(trifluoromethyl)benzamide]	1.7 nM	1.3 nM		
C=CC(O)COc1ccc(C(F)(F)F)cc1C(=O)/N=c1\cc(C(C)(C)C)n(C)n1C[C@H]1CCCO1 (stereo partly drawn) [Example 101, N-{(3E)-5-tert-butyl-1-methyl-2-[(2R)-tetrahydrofuran-2-ylmethyl]-1,2-dihydro-3 H-pyrazol-3-ylidene}-2-[(2-hydroxybut-3-enyl)oxy]-5-(trifluoromethyl)benzamide]	1 nM	2.8 nM		
C[C@H](O)[C@H](C)Oc1ccc(C(F)(F)F)cc1C(=O)/N=c1\cc(C(C)(C)C)n(C)n1C[C@H]1CCCO1 [Example 103, N-{(3E)-5-tert-butyl-1-methyl-2-[(2R)-tetrahydrofuran-2-ylmethyl]-1,2-dihydro-3 H-pyrazol-3-ylidene}-2-{[(1S,2S)-2-hydroxy-1-methylpropyl]oxy}-5-(trifluoromethyl)benzamide]	3.8 nM	1.7 nM		
C[C@@H](O)[C@@H](C)Oc1ccc(C(F)(F)F)cc1C(=O)/N=c1\cc(C(C)(C)C)n(C)n1C[C@H]1CCCO1 [Example 104, N-{(3E)-5-tert-butyl-1-methyl-2-[(2R)-tetrahydrofuran-2-ylmethyl]-1,2-dihydro-3 H-pyrazol-3-ylidene}-2-{[(1R,2R)-2-hydroxy-1-methylpropyl]oxy}-5-(trifluoromethyl)benzamide]			< 6.00	6.50
Cn1c(C(C)(C)C)c/c(=N\C(=O)c2cc(C(F)(F)F)ccc2OC[C@@H](O)CNC(C)(C)C)n1C[C@H]1CCCO1 [Example 105, 2-{[(2S)-3-(tert-butylamino)-2-hydroxypropyl]oxy}-N-{(3E)-5-tert-butyl-1-methyl-2-[(2R)-tetrahydrofuran-2-ylmethyl]-1,2-dihydro-3H-pyrazol-3-ylidene}-5-(trifluoromethyl)benzamide]			< 6.00	6.39
Cn1c(C(C)(C)C)c/c(=N\C(=O)c2cc(C(F)(F)F)ccc2OCC(C)(C)O)n1CC1CCCC1 [Example 106, N-[(3E)-5-tert-butyl-2-(cyclopentylmethyl)-1-methyl-1,2-dihydro-3H-pyrazol-3-ylidene]-2-(2-hydroxy-2-methylpropoxy)-5-(trifluoromethyl)benzamide]	6.6 nM	8.7 nM		
C=C[C@H](O)COc1ccc(C(F)(F)F)cc1C(=O)/N=c1\cc(C(C)(C)C)n(C)n1C[C@H]1CCCO1 [Example 107, N-{(3E)-5-tert-butyl-1-methyl-2-[(2R)-tetrahydrofuran-2-ylmethyl]-1,2-dihydro-3 H-pyrazol-3-ylidene}-2-{[(2S)-2-hydroxybut-3-enyl]oxy}-5-(trifluoromethyl)benzamide]	2.4 nM	2.9 nM		
